Test results as given in US6174896A, “Quinuclidine derivatives and medicinal composition thereof” (Yamanouchi Pharmaceutical Co., Ltd., priority 1994, dated 2001).

Tested on: oxotremorine-induced salivary secretion
Test: Test on salivary secretion in rat
Assay type: in vivo
Conditions: urethane-anesthetized male Wistar rat, oxotremorine 0.8 μmol/kg
Description: A male Wistar rat (160-190 g) was subjected to anesthesia with urethane (0.8 g/kg i.p.), and the test compound was administered (to the control group: solvent). Fifteen minutes later, 0.8 μmol/kg of oxotremorine was administered. In each case, the drug was administered through its femoral artery. The saliva secreted for 5 minutes after the administration of oxotremorine was collected and weighed. The inhibition ratio against the amount of saliva in the control group was determined and the dose of the test compound required for 50% inhibition of the amount of saliva in the control group was designated as ID50.

CN1[C@@H]2CC[C@H]1C[C@@H](OC(=O)C(CO)c1ccccc1)C2 (stereo partly shown) [atropine]
ID50 value (salivary secretion) compared with ED30 value (rhythmic bladder contraction): substantially the same
